The source made the active and inactive calls. The rule behind the calls is not given here.

In data set [1] the test system is BMDM. Nature of the data set: Inhibition of RANKL-induced osteoclast differentiation in ICR mouse bone marrow macrophage assessed as reduction in multinucleated TRAP+ cells at 10 uM preincubated for 3 days for RANKL stimulation followed by compound addition and measured after 1 day by TRAP staining based microscopy. Type of data set: functional, cell-based.
Data set [2] in a line: Inhibition of RANKL-induced osteoclast differentiation in ICR mouse bone marrow macrophage assessed as reduction in multinucleated TRAP+ cells preincubated for 3 days for RANKL stimulation followed by compound addition and measured after 1 day by TRAP staining based microscopy. Type of data set: functional. To be noted: BMDM, read-out: ED50 (the source's name).
For data set [3], the system named is BMDM. The data set is described as follows: Cytotoxicity against ICR mouse bone marrow macrophage assessed as reduction in cell viability at 10 uM incubated for 3 days by WST-8 assay. The data set is classed as cell-based. As to conditions: 72 h. (In general: Tetrazolium assays rely on reduction of a dye to a coloured formazan, in cell work by metabolically active cells.)

In data set [4] the test system is BMDM. The data set is described as follows: Cytotoxicity against ICR mouse bone marrow macrophage assessed as reduction in cell viability at 1 to 10 uM incubated for 3 days by WST-8 assay. The data set is classed as cell-based. To be noted: 72 h.

Consider `COc1c2c(c(C)c3c1C(=O)OC3)O[C@@]1(C)CC[C@@H](C(C)(C)O)[C@](C)(CCC(=O)O)[C@H]1C2`, for which the inhibition result in the data set with BMDM [1] was “inactive”. Consider `C=C(C)[C@@H]1CC[C@]2(C)Oc3c(C)c4c(c(OC)c3C[C@@H]2[C@@]1(C)CCC(=O)OC)C(=O)OC4`, for which, in the data set on BMDM [1], the inhibition result is “inactive”.

`C=C(C)[C@@H]1[C@H](O)C[C@]2(C)Oc3c(C)c4c(c(OC)c3C[C@@H]2[C@@]1(C)CCC(=O)OC)C(=O)OC4`: in the data set on BMDM [1], the inhibition entry is “inactive”. Same read-out and setting: in the case of `CC(C)=CCC/C(C)=C/CC/C(C)=C/Cc1c(O)c(C)c2c(c1O)C(=O)OC2` it was “inactive”. Same read-out and setting: in the case of `COC(=O)CC[C@]1(C)[C@H]2Cc3c(c(C)c4c(c3OC)C(=O)OC4)O[C@@]2(C)C[C@@H](O)[C@H]1C(C)(C)O` it was “inactive”. As to `Cc1c2c(c(O)c3c1O[C@@]1(C)CC[C@H]4C(C)(C)C(=O)CC[C@]4(C)[C@H]1C3)C(=O)OC2`, in data set [2], the EC50 was in the range of 1900 to 2800 nM. Moreover, the Activity result in the data set with BMDM [3] is recorded as “Toxic”. As to `COc1c2c(c(C)c3c1C(=O)OC3)O[C@@]1(C)C[C@@H](O)[C@H]3C(C)(C)C(=O)CC[C@]3(C)[C@H]1C2`, the EC50 in data set [2] was in the range of 1900 to 2800 nM. For the same compound, the Activity entry in the data set with BMDM [4] is “Non-Toxic”.

Take `COC(=O)CC[C@]1(C)[C@H]2Cc3c(c(C)c4c(c3OC)C(=O)OC4)O[C@@]2(C)CC[C@H]1C(C)(C)O`: in data set [2], the EC50 lay within 1900 to 2800 nM. Also, in the data set with BMDM [4], the Activity entry is listed as “Non-Toxic”.

On to `C/C(=C\Cc1c(O)c(C)c2c(c1O)C(=O)OC2)CC/C=C(\C)CCCC(C)(C)O`, for which the inhibition result in the data set on BMDM [1] was “inactive”. Take `COc1c2c(c(C)c3c1C(=O)OC3)O[C@@]1(C)CC[C@H]3C(C)(C)OC(=O)CC[C@]3(C)[C@H]1C2`: the EC50 in data set [2] is 1900 to 2800 nM. Besides, the Activity result with BMDM [4] was “Non-Toxic”. For `COc1c2c(c(C)c3c1C(=O)OC3)O[C@@]1(C)CC[C@@]3(O)C(C)(C)C(=O)CC[C@]3(C)[C@H]1C2` the same measures were 1900 to 2800 nM and “Non-Toxic”. As to `COc1c2c(c(C)c3c1C(=O)OC3)O[C@@]1(C)CC[C@H]3C(C)(C)[C@@H](O)CC[C@]3(C)[C@H]1C2`, in data set [2], the EC50 lay in the range of 1900 to 2800 nM. For the same compound, the Activity entry with BMDM [4] is listed as “Non-Toxic”.
